In patent US12064516B2, “Pharmaceutical formulations and uses thereof” (Aldeyra Therapeutics, Inc., priority 2020, dated 2024):
Like-named read-outs stand apart in the source and are kept apart here.

Experiment: Pharmacokinetics of compound I-1 in the dog by intravenous, oral gavage and oral capsule routes
Type: in vivo, beagle dogs
Settings: for concentration at 0.083 h / concentration at 0.25 h / concentration at 0.5 h / concentration at 1 h / concentration at 2 h / concentration at 4 h / concentration at 8 h / concentration at 12 h / AUC(0-inf) / AUC(0-t) / C0 / clearance / half-life / Vd: male, beagle, dog, plasma; for concentration at 0.083 h / concentration at 0.25 h / concentration at 0.5 h / concentration at 1 h / concentration at 2 h / concentration at 4 h / concentration at 8 h / concentration at 12 h: read-out: Concentration at time point; for Vd: read-out: Vss
Method: A pharmacokinetic study was conducted to compare the bioavailability of capsule and suspension oral formulations vs. an intravenous formulations.
The standard curve was prepared from 1 to 2,000 ng/mL. QC samples were prepared at […]. Dilution QCs were prepared at 10-fold dilution. Deuterated (d6) I-1 (compound 1-7) was used as an internal standard. A 50 μL aliquot of sample was added to 150 μL of cold internal standard in acetonitrile to effect protein precipitation. The resulting supernatants were analyzed by LCMS. Diluted sample data was utilized only for over-the-curve results.
Briefly, 9 male non-naïve beagle dogs were assigned in groups of 3 to 3 dose groups. Group 1 was dosed 3 mg/kg by the intravenous route in a vehicle of 20% sulfobutylether-β-cyclodextrin (SBECD). Group 2 was dosed 10 mg/kg by the oral gavage route in a vehicle of 0.5% methylcellulose (MC). Group 3 was dosed with 100 mg capsules.
The I-1 100 mg capsules are manufactured as a non-sterile spray dried, granulated powder blend. The blend is then filled into capsules for oral delivery. The capsules are packaged in high-density polyethylene bottles. The quantitative composition of the I-1 100 mg capsule is presented above in Table B.
Procedure: (PO) gavage: formulations will be administered via a rubber oral gavage tube followed by a 10 mL flush with drinking water. (PO) tablet: tablets will be administered orally by placing the tablet in the back of the throat followed by a 10 mL flush with water.
Frequency: Pre-dose, 5, 15, 30 min, 1, 2, 4, 8, and 12 hrs post-dose (IV); pre-dose, 15, 30 min, 1, 2, 4, 8, and 12 hrs post-dose (PO by gavage and PO by capsule).
Blood collection: each blood sample will be collected from the dog's jugular vein or other accessible vein via direct venepuncture, placed into a pre-labeled tube containing K2EDTA and kept on ice until centrifugation.
Plasma preparation and storage: Certifuged at 4 C at 3,000× for 5 mm. Stored in a freezer until analysed.
Pharmacokinetics package PKSolver2.0™ has been validated against WinNonLin™ as a tool for non-GLP studies and was used to process the pharmacokinetic data.
For each route, the average data were processed with non-compartmental, one compartment, and two compartment models. The models were assessed for goodness of fit and the accuracy of the model to assess the biphasic data, with either a) no weighting, b) 1/concentration observed, or c) 1/concentration observed squared. 1/concentration predicted, and 1/concentration predicted squared weightings were also assessed for best fit. […] The zeros were averaged with the 71.5 value for a resulting average of 23.8. For the In Group 2 (PO Gavage) subject 3 experienced 30 mL of emesis, so the dose assigned to that subject was 7.46. In all cases, the subjects were modelled individually, and the individual PK parameters were averaged to provide final parameters.
For group 1 (intravenous) the final model selected was a two compartment model with 1/concentration observed squared weighting.
For group 2 (oral gavage) the final model was a two compartment extravascular model with 1/concentration predicted squared weighting.
For group 3 (oral capsule) the final model was a one compartment extravascular model with a lag time and no weighting. […] The body weight of each animal was used to assign a mg/kg dose to each individual. Subject 1 was dosed at 7.69 mg/kg. Subject 2 was 6.94 mg/kg, and Subject 3 was 6.99 mg/kg.

[1] = iv, 3 mg/kg, Group 1: IV 3 mg/kg, Average
[2] = iv, 3 mg/kg, Group 1: IV 3 mg/kg, Subject 1
[3] = iv, 3 mg/kg, Group 1: IV 3 mg/kg, Subject 2
[4] = iv, 3 mg/kg, Group 1: IV 3 mg/kg, Subject 3
[5] = iv, 3 mg/kg, Intravenous - 3 mg/kg, Average
[6] = iv, 3 mg/kg, Intravenous - 3 mg/kg, Subj1
[7] = iv, 3 mg/kg, Intravenous - 3 mg/kg, Subj2
[8] = iv, 3 mg/kg, Intravenous - 3 mg/kg, Subj3
[9] = oral, 7 mg/kg, Group 3: PO Capsule 7 mg/kg, Subject 1
[10] = oral, 7 mg/kg, Group 3: PO Capsule 7 mg/kg, Subject 3
[11] = oral, 7 mg/kg, Group 3: PO Capsule 7 mg/kg, Average
[12] = oral, 7 mg/kg, Group 3: PO Capsule 7 mg/kg, Subject 2

CC(C)(O)c1nc2ccccc2cc1N [I-1]
AUC/Dose (100 mg Capsule, average dose 7.2 mg/kg, Average): 1139 ng·h/mL/mg/kg
AUC/Dose (100 mg Capsule, average dose 7.2 mg/kg, Subj1): 955 ng·h/mL/mg/kg
AUC/Dose (100 mg Capsule, average dose 7.2 mg/kg, Subj2): 809 ng·h/mL/mg/kg
AUC/Dose (100 mg Capsule, average dose 7.2 mg/kg, Subj3): 1653 ng·h/mL/mg/kg
AUC/Dose (Intravenous - 3 mg/kg, Average): 1379
AUC/Dose (Intravenous - 3 mg/kg, Subj1): 1361
AUC/Dose (Intravenous - 3 mg/kg, Subj2): 1520
AUC/Dose (Intravenous - 3 mg/kg, Subj3): 1256
AUC/Dose (Oral Gavage 0.5% Methylcellulose 10 mg/kg, Average): 1038 ng·h/mL/mg/kg
AUC/Dose (Oral Gavage 0.5% Methylcellulose 10 mg/kg, Subj1): 1121 ng·h/mL/mg/kg
AUC/Dose (Oral Gavage 0.5% Methylcellulose 10 mg/kg, Subj2): 1010 ng·h/mL/mg/kg
AUC/Dose (Oral Gavage 0.5% Methylcellulose 10 mg/kg, Subj3 (dose assigned 7.46 after emesis)): 982 ng·h/mL/mg/kg
concentration at 0.083 h [1]: 5080 ng/mL
concentration at 0.083 h [2]: 4910 ng/mL
concentration at 0.083 h [3]: 4900 ng/mL
concentration at 0.083 h [4]: 5430 ng/mL
concentration at 0.25 h [1]: 2410 ng/mL
concentration at 0.25 h [2]: 2780 ng/mL
concentration at 0.25 h [3]: 2300 ng/mL
concentration at 0.25 h [4]: 2150 ng/mL
concentration at 0.5 h [1]: 1660 ng/mL
concentration at 0.5 h [2]: 1720 ng/mL
concentration at 0.5 h [3]: 1700 ng/mL
concentration at 0.5 h [4]: 1570 ng/mL
concentration at 1 h [1]: 951 ng/mL
concentration at 1 h [2]: 857 ng/mL
concentration at 1 h [3]: 908 ng/mL
concentration at 1 h [4]: 1090 ng/mL
concentration at 2 h [1]: 548 ng/mL
concentration at 2 h [2]: 436 ng/mL
concentration at 2 h [3]: 766 ng/mL
concentration at 2 h [4]: 443 ng/mL
concentration at 4 h [1]: 250 ng/mL
concentration at 4 h [2]: 259 ng/mL
concentration at 4 h [3]: 287 ng/mL
concentration at 4 h [4]: 203 ng/mL
concentration at 8 h [1]: 42.5 ng/mL
concentration at 8 h [2]: 49 ng/mL
concentration at 8 h [3]: 55.4 ng/mL
concentration at 8 h [4]: 23.1 ng/mL
concentration at 12 h [1]: 15.5 ng/mL
concentration at 12 h [2]: 23.9 ng/mL
concentration at 12 h [3]: 17 ng/mL
concentration at 12 h [4]: 5.5 ng/mL
AUC(0-inf) [5]: 4140 ng·h/mL
AUC(0-t) [5]: 4100 ng·h/mL
C0 [5]: 6720 ng/mL
clearance [5]: 12.2 mL/min/kg
half-life [5]: 109 min
Vd [5]: 1.39 L/kg
AUC(0-inf) [6]: 4080 ng·h/mL
AUC(0-t) [6]: 4030 ng·h/mL
C0 [6]: 5600 ng/mL
clearance [6]: 12.2 mL/min/kg
half-life [6]: 132 min
Vd [6]: 1.51 L/kg
AUC(0-inf) [7]: 4560 ng·h/mL
AUC(0-t) [7]: 4520 ng·h/mL
C0 [7]: 6670 ng/mL
clearance [7]: 11 mL/min/kg
half-life [7]: 109 min
Vd [7]: 1.4 L/kg
AUC(0-inf) [8]: 3770 ng·h/mL
AUC(0-t) [8]: 3760 ng·h/mL
C0 [8]: 7890 ng/mL
clearance [8]: 13.3 mL/min/kg
half-life [8]: 86.4 min
Vd [8]: 1.25 L/kg
concentration at 0.25 h [9]: 0 ng/mL
concentration at 0.25 h [10]: 0 ng/mL
concentration at 0.5 h [11]: 97.4 ng/mL
concentration at 0.5 h [9]: 1.1 ng/mL
concentration at 0.5 h [12]: 290 ng/mL
concentration at 0.5 h [10]: 1 ng/mL
concentration at 1 h [11]: 137 ng/mL
concentration at 1 h [9]: 24 ng/mL
concentration at 1 h [12]: 254 ng/mL
concentration at 1 h [10]: 134 ng/mL
concentration at 2 h [11]: 2350 ng/mL
concentration at 2 h [9]: 1740 ng/mL
concentration at 2 h [12]: 1320 ng/mL
concentration at 2 h [10]: 3990 ng/mL
concentration at 4 h [11]: 985 ng/mL
